How the values were obtained:
[1] = tested on: H1299 cells; test: Wound-healing migration and transwell invasion after EFHD2 knockdown; format: cell-based, human; conditions: EFHD2 knockdown in H1299 cells
Description: FIG. 1. EFHD2 increases the metastatic abilities of lung adenocarcinoma cells. The effects of EFHD2 overexpression in A549 cells and EFHD2-knockdown in H1299 cells on metastatic abilities were determined. (A) Migration ability was analyzed by wound-healing assay. (B) Invasive ability was analyzed by transwell invasion assay. (C) Invadopodia were visualized by colocalized of cortactin (green) and F-actin (red). (D) Quantification of cancer cells with invadopodia. N=100 cells/sample. **, P<0.01.
Wound healing assay. The in vitro migration assay was performed using a Culture-Insert well (ibidi GmbH, German/v). Cancer cells (4.5×10^4 cells) were cultured in suitable media in the device for 24 hr. After removal of the Culture-Insert, cancer cells were cultured for an additional 8 hr. The migration distance of cancer cells was recorded, and the migration area was measured using ImageJ software.
Matrigel invasion assay. For in vitro invasion assay, cancer cells (1.5×10^5 cells in 200 μL) were suspended in the upper half of a PET membrane transwell insert chamber (BD Biosciences), which was coated with Matrigel (1 mg/mL; BD Biosciences), on a 24-well plate. […]

[2] = tested on: H1299 cells; test: MTT cell growth after EFHD2 knockdown; format: cell-based, human; conditions: EFHD2 knockdown in H1299 cells
Description: MTT assay. […] The absorbance of the solution at 570 nm was measured by spectrophotometer.
To determine whether EFHD2 contributes to the metastatic abilities of lung adenocarcinoma cells, the pcDNA vector was used to overexpress EFHD2 in A549 cells and shRNA (i.e., shEFHD2) to knockdown EFHD2 in H1299 cells.

shEFHD2: short hairpin RNA directing cleavage of EFHD2 gene RNA; SEQ ID NO: 4, encoded by SEQ ID NO: 1 (GGCCCUCUUCUACAAGUUCGUCAUAGAGCUCUAUGACGAACUUGUAGAAGAGAAAAAAC; expressed or natural sequence)
invasiveness ([1]; transwell invasion assay): opposite effects | migration ([1]; wound-healing assay): opposite effects | cell growth [2]: did not obviously affect cell growth
